Common to all, as to experiment: NCI-60 cell line screen, 48 h
Assay [1] concerns SW-620 colon.
The test system of assay [2] is HOP-92 NSCLC.
Assay [3] deals with DU-145 prostate.
Assay [4] has as its system IGROV1 ovarian.
The subject of assay [5] is SR leukemia.
For assay [6], the system named is SK-OV-3 ovarian.
The subject of assay [7] is MCF7 breast.
Assay [8] concerns HCT-15 colon.

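Interpolation was linear, between the two tested concentrations surrounding the appropriate level; five concentrations were tested over 48 hours in 96-well plates. At the GI50, growth is halved. TGI: total growth inhibition.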 A value given as a limit tells only on which side of the number the result lay.

On to `Cn1ccnc1C(=O)/C=C/c1ccc(CC(=O)Nc2ccc(Br)cc2)cc1`, for which the GI50 in assay [1] was 4.15 µM; in assay [2], 3.15 µM; in assay [3], 3.93 µM; in assay [4], 2.97 µM; in assay [5], 0.575 µM; in assay [6] it was 8.88 µM. For the same molecule, the results for the GI50 in assay [7] and in assay [8] were 1.84 µM and 2.5 µM, respectively. The TGI in assay [1] was 13.4 µM; in assay [2], 8.26 µM; in assay [3] it was 12.2 µM; in assay [4] it was 10.6 µM; in assay [5], above 16.7 µM; in assay [6] it was above 16.7 µM. Besides, the TGI in assay [7] and in assay [8] was above 16.7 µM each time.
On to `C=C(CNCCO)[C@@H]1CC[C@]2(CO)CC[C@]3(C)[C@H](CC[C@@H]4[C@@]5(C)CCC(N)C(C)(C)[C@@H]5CC[C@]43C)[C@@H]12` (stereo partly specified), for which the GI50 is 1.89 µM in assay [1]; 1.29 µM in assay [2]; 5.1 µM in assay [3]; 6.05 µM in assay [4]; 1.9 µM in assay [5]; 11.1 µM in assay [6]. Moreover, the GI50 was 1.77 µM in assay [7] and 5.57 µM in assay [8]. Moreover, the TGI stood at 3.75 µM in assay [1]; 2.76 µM in assay [2]; 16.6 µM in assay [3]; 20.8 µM in assay [4]; 5.22 µM in assay [5]; 23.3 µM in assay [6]. For the same molecule, the TGI was found to be 3.57 µM in assay [7] and 19 µM in assay [8].
As for `COc1c2ccoc2c(/C=C/C=O)c2oc(-c3ccccc3)cc(=O)c12`, the GI50 in assay [1] is 2.16 µM; in assay [2], 11.5 µM; in assay [3], 10.7 µM; in assay [4], 17.5 µM; in assay [6] it was 6.34 µM; in assay [7], 2.72 µM. Further, the GI50 in assay [8] is 2.52 µM. In addition, the TGI in assay [1] is 5.21 µM; in assay [2], above 100 µM; in assay [3], above 100 µM; in assay [4], above 100 µM; in assay [6], 42.6 µM; in assay [7], 58.3 µM. This molecule showed a TGI in assay [8] of 9.06 µM.
Take `CSCCCN(CCCSC)CCCSC`: the TGI in assay [1] is above 100 µM; in assay [3] it was above 100 µM; in assay [4], above 100 µM; in assay [5], 58.8 µM; in assay [6], above 100 µM; in assay [7], above 100 µM. This molecule also showed a TGI in assay [8] above 100 µM.
For the molecule `CCc1ccc2c(c1)C(=O)c1c-2n(CCCBr)c(=O)c2cc([N+](=O)[O-])ccc12`, the GI50 was above 50 µM in assay [1]; 16 µM in assay [2]; above 50 µM in assay [3]; 27.9 µM in assay [4]; 19.1 µM in assay [5]; 19.9 µM in assay [7]. The GI50 in assay [8] is above 50 µM. In addition, the TGI in assay [1], in assay [2], in assay [3], in assay [4], in assay [5] and in assay [7] was above 50 µM each time. For the same molecule, the TGI in assay [8] is above 50 µM.
Turning to `Oc1ccc(Cl)cc1-c1cc(-c2ccccc2Cl)[nH]n1`, the GI50 in assay [1] is 77.2 µM; in assay [3] it was 8.05 µM; in assay [4], 1.66 µM; in assay [5], 4.12 µM; in assay [6], above 100 µM; in assay [7], 0.362 µM. In assay [8], the GI50 is 0.488 µM. Further, the TGI in assay [1], in assay [3], in assay [4], in assay [5], in assay [6] and in assay [7] was above 100 µM throughout. This molecule also returned a TGI in assay [8] above 100 µM.
As for `CNC(=O)c1cc(Oc2ccc3nc(NC(=O)Nc4ccc(Cl)c(C(F)(F)F)c4)sc3c2)ccn1`, the GI50 is 2.99 µM in assay [1]; 1.15 µM in assay [2]; 2.02 µM in assay [4]; 0.412 µM in assay [5]; 1.89 µM in assay [6]. Also, the TGI in assay [1] is above 100 µM; in assay [2], 3.24 µM; in assay [4] it was 5.12 µM; in assay [5], 9.1 µM; in assay [6], 4.21 µM.
As to `CC1=C(C(=O)Nc2ccc(F)c(Cl)c2)C(c2ccc(Cl)cc2)NC(=O)N1` (stereo unspecified), the GI50 in assay [1] was 24.8 µM; in assay [2], 11.8 µM; in assay [3], 15.6 µM; in assay [4], 12.6 µM; in assay [6], 81.8 µM; in assay [7], 18.4 µM. Besides, the GI50 in assay [8] is 19.5 µM. In addition, the TGI in assay [1] was 66 µM; in assay [2], 26.6 µM; in assay [3], 37 µM; in assay [4] it was 31.9 µM; in assay [6] it was above 100 µM; in assay [7], 44.9 µM. The TGI in assay [8] was found to be 41.1 µM.
Consider `CSc1ccccc1C#C/C=C\C#Cc1ccccc1N1CCCC1=O`, for which the TGI in assay [1] was above 17.6 µM; in assay [2], above 50 µM; in assay [3] it was above 50 µM; in assay [4], above 50 µM; in assay [6], above 50 µM; in assay [7], above 50 µM. This molecule also showed a TGI in assay [8] above 50 µM. The GI50 is above 22.5 µM in assay [3] and 14.9 µM in assay [4].
As to `O=C(CCl)N1c2ccccc2Oc2ccc3ccccc3c21`, the GI50 in assay [1] is 0.373 µM; in assay [2] it was 1.59 µM; in assay [3] it was 1.17 µM; in assay [4], 0.83 µM; in assay [5], 0.305 µM; in assay [6], 2.51 µM. Besides, the TGI was 1.48 µM in assay [1]; 3.31 µM in assay [2]; 2.53 µM in assay [3]; 2.53 µM in assay [4]; 1.06 µM in assay [5]; 6.09 µM in assay [6].
Take `Clc1cccc(Cc2cn3cc(-c4ccccc4)nc3s2)c1Cl`: the GI50 in assay [1] is above 100 µM; in assay [2], 2.84 µM; in assay [3] it was 22.4 µM; in assay [4], 31.4 µM; in assay [6] it was 10.3 µM; in assay [7], 11.5 µM. Also, the GI50 in assay [8] was above 100 µM. Moreover, the TGI in assay [1] is above 100 µM; in assay [2] it was 16.9 µM; in assay [3] it was above 100 µM; in assay [4], above 100 µM; in assay [6], 97.6 µM; in assay [7] it was above 100 µM. In addition, in assay [8], the TGI is above 100 µM.
In the case of `O[C@H]1[C@H]2c3cc4c(cc3CN3CCC(=C[C@@H]1O)[C@H]23)OCO4`, the TGI in assay [1] is above 36.9 µM; in assay [4] it was 0.874 µM; in assay [5] it was 4.24 µM; in assay [6], 20.5 µM; in assay [7] it was 1.71 µM; in assay [8], 5.32 µM.

The record behind these values is PubChem BioAssay (NCI).
